The assay has as its target Acetylcholine-binding protein (Lymnaea stagnalis, UniProt P58154). The assay can be described thus: Interaction Assay. The settings on record: pH 7.4; 25 °C. An excerpt: Interaction assay using AChBP.

The structures appear in SMILES notation. pKd: −log10 of the molar value. Values joined by “and” are separate entries in the source; they are usually repeats but may differ in a detail not shown here. Identical values can stand only once.

We go through 5 compounds from BindingDB's records for doi:10.1021/bi1006354 (Beactica, 2010).

A word on the pKd: it is the negative decadic logarithm of the Kd, by convention in mol/L. Low readings indicate a high Kd, high ones a low Kd.

Acetylcholine-binding protein, sequence (P58154 whole entry): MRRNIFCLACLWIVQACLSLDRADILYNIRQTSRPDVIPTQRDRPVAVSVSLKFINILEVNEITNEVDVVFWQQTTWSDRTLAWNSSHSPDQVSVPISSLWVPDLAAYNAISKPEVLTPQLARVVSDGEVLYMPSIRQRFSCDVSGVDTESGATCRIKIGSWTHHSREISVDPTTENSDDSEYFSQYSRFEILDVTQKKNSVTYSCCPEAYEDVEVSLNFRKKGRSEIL

With `CC(=O)OCC[N+](C)(C)C` [2-acetoxyethyl(trimethyl)ammonium;perchlorate], the negative-log Kd (pKd) is 6.34 and 5.41.

`CN(C)CCc1cccnc1` [Quinuclidine analogue, 1]: the pKd is 5.37.

`O=C(N[C@@H]1C2CCN(CC2)C1Cc1cccnc1)c1cc2ccccc2o1` (stereo not given in full) [Quinuclidine analogue, 5] showed a pKd of 7.89.

Consider `N[C@@H]1C2CCN(CC2)C1Cc1cccnc1` (stereo not given in full) [Quinuclidine analogue, 2], for which the pKd was 6.46.

`O=C(N[C@@H]1C2CCN(CC2)C1Cc1cccnc1)c1ccccc1` (stereo not given in full) [Quinuclidine analogue, 3] gave a pKd of 6.85.
